Patent publication US20220153732A1, “PROTEIN SECRETION INHIBITORS” (KEZAR LIFE SCIENCES, priority 2019, published 2022)

Columns and labels:
Format in all cases: cell-based
[1] = tested on: PD1-ss+10aa/Gaussia Luciferase; assay: Dox-Induced PD1-ss-Gluc Assay; settings: 24 hr, doxycycline-induced, 293FRT/TO cells; read-out: 24 hr Dox Inducible PD1ssGluc 293FRT/TO: Mean IC50
In short: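 Stable cell line carrying PD1-ss+10aa/Gaussia luciferase cDNA under T-REx (doxycycline-inducible) control, plated the day before assay. Compound dilutions in DMSO/media containing doxycycline added and incubated at 37° C, 5% CO2. Undefined stereocentres: data refer to stereoisomer mixtures.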

[2] = tested on: TNFα-FL/Gaussia Luciferase; assay: Dox Induced TNFα-FL-Gluc Assay; settings: 24 hr, doxycycline-induced, 293FRT/TO cells; read-out: 24 hr Dox Inducible TNFaFLGluc 293FRT/TO: Mean IC50
In short: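 A stable T-REx cell line carrying doxycycline-inducible TNFα-FL/Gaussia luciferase was plated the day before assay. Compound dilutions in DMSO/media containing doxycycline were then added and incubated at 37° C, 5% CO2.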

[3] = tested on: HER3-ss+4aa/Gaussia Luciferase; assay: Dox-Induced Her3-ss-Gluc Assay; settings: 24 hr, doxycycline-induced, 293FRT/TO cells; read-out: 24 hr Dox Inducible Her3(ss + 4)Gluc 293FRT/TO: Mean IC50
In short: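 Stable T-REx cell line carrying a doxycycline-regulated HER3-ss+4aa/Gaussia luciferase insert, plated the day before assay. Compound dilutions in DMSO/media with doxycycline added, then incubated at 37° C., 5% CO2. Stereoisomer mixtures tested where stereochemistry is not drawn.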

[4] = tested on: IL-2-FL/Gaussia Luciferase; assay: Dox Induced IL2-FL-Gluc Assay; settings: 24 hr, doxycycline-induced, 293FRT/TO cells; read-out: 24 hr Dox Inducible IL2FLGIuc 293FRT/TO: Mean IC50
In short: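 Stable T-REx cell line expressing doxycycline-inducible IL-2-FL/Gaussia luciferase cDNA, plated the day before assay. Compound dilutions in DMSO/media containing doxycycline added and incubated at 37° C., 5% CO2. Unspecified stereochemistry means data refer to a stereoisomer mixture.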

[5] = tested on: human multiple myeloma cell line NCI-H929; assay: H929 Cell Viability Assay; settings: 48 hr, NCI-H929 cells, Celltiter-Glo, read-out: 48 hr H929 Viability Celltiter-Glo: Mean EC50
Protocol: Plates were incubated at 37° C., 5% CO2 for 48 hours. After 48 hours, Celltiter-Glo® (Promega) was added to each well and luciferase signal was quantified using Tecan Infinite M1000 Pro for cell viability determination.
For chemical structures that include one or more stereoisomers, but are illustrated without indicating stereochemistry, the assay data refers to a mixture of stereoisomers.

[6] = tested on: human multiple myeloma cell line U266B1; assay: U266 Cell Viability Assay; settings: U-266, 48 hr, U266B1 cells, Celltiter-Glo, read-out: 48 hr U266 Viability Celltiter-Glo: Mean EC50
In short: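 U266B1 myeloma cells treated with compound dilutions in DMSO/media for 48 h at 37 °C, 5% CO2. Viability read by CellTiter-Glo luminescence. Stereochemically undefined structures were tested as stereoisomer mixtures.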

| SMILES | IC50 [1] | IC50 [2] | IC50 [3] | IC50 [4] | EC50 [5] | EC50 [6] |
| --- | --- | --- | --- | --- | --- | --- |
| Cc1cccc(/C=C/c2csc(NC(=O)c3cccn3Cc3ccncc3)n2)n1 [Compound A356] | 0.035 µM | 14.4 µM | 5.41 µM | > 25 µM | > 25 µM | 23.8 µM |
| Cc1ccc(/C=C/c2csc(NC(=O)c3cccn3Cc3ccncc3)n2)nc1 [Compound A357] | 0.012 µM | 7.48 µM | 2.31 µM | 9.07 µM | 10.7 µM | 17.9 µM |
| O=C(Nc1nc(/C=C/c2ncc(F)cc2F)cs1)c1cccn1Cc1ccncc1 [Compound A358] | 0.029 µM | 3.57 µM | 0.443 µM | 0.765 µM | 17.9 µM | > 25 µM |
| O=C(Nc1nc([C@H]2CCCN2c2ccc3c(c2)OCO3)cs1)c1cccn1Cc1ccncc1 [Compound A359] | 0.011 µM | 0.083 µM | 0.013 µM | 0.015 µM | 0.382 µM | > 25 µM |
| O=C(Nc1ncc(Cl)s1)c1cccn1Cc1ccncc1 [Compound B1] | 1.89 µM | > 25 µM | 4.32 µM | 6.29 µM | > 25 µM | > 25 µM |
| C=Cc1csc(NC(=O)c2cccn2Cc2ccncc2)n1 [Compound B2] | 1.97 µM | > 25 µM | 12.1 µM | 8.42 µM | > 25 µM | > 25 µM |
| Cc1ccc(S(=O)(=O)CCOC(C)(C)c2csc(NC(=O)c3cccn3Cc3ccncc3)n2)cc1 [Compound B3, 1-(pyridin-4-ylmethyl)-N-(4-(2-(2-tosylethoxy)propan-2-yl)thiazol-2-yl)-1H-pyrrole-2-carboxamide] | 2.84 µM | > 25 µM | 4.24 µM | 2.93 µM | > 25 µM | > 25 µM |
| CC(C)(C)c1cc(NC(=O)c2cccn2Cc2ccncc2)no1 [Compound B4, N-(5-(tert-butyl)isoxazol-3-yl)-1-(pyridin-4-ylmethyl)-1H-pyrrole-2-carboxamide] | 3.02 µM | > 25 µM | 11.2 µM | 22.5 µM | > 25 µM | > 25 µM |
| CC(C)c1coc(NC(=O)c2cccn2Cc2ccncc2)n1 [Compound B5, N-(4-isopropyloxazol-2-yl)-1-(pyridin-4-ylmethyl)-1H-pyrrole-2-carboxamide] | 3.24 µM | > 25 µM | 12.6 µM | 10.6 µM | > 25 µM | > 25 µM |
| O=C(Nc1nccs1)c1cccn1Cc1ccncc1 [Compound B6] | 6.66 µM | > 25 µM | > 25 µM | > 25 µM | > 25 µM | > 25 µM |
| CCc1nc(NC(=O)c2cccn2Cc2ccccc2Cl)sc1C [Compound B7, 1-(2-chlorobenzyl)-N-(4-ethyl-5-methylthiazol-2-yl)-1H-pyrrole-2-carboxamide] | 9.07 µM | > 25 µM | 20 µM | 24.3 µM | > 25 µM | > 25 µM |
| Cc1cc(NC(=O)c2cccn2Cc2ccncc2)no1 [Compound B8, N-(5-methylisoxazol-3-yl)-1-(pyridin-4-ylmethyl)-1H-pyrrole-2-carboxamide] | 9.1 µM | > 25 µM | > 25 µM | > 25 µM | > 25 µM | > 25 µM |
